Columns and labels:
MRC5 [1] = experiment: Cytotoxicity against human MRC5 cells assessed as inhibition of cell viability at >1000 uM after 24 hrs by MTT assay; format: cell-based; details: mrc5, 24 h
[2] = Cytotoxicity against human MRC5 cells assessed as inhibition of cell viability after 24 hrs by MTT assay; format: cell-based
Human alphaherpesvirus 3 = experiment: Antiviral activity against Varicella zoster virus Ellen infected in human MRC5 cells assessed as inhibition of viral replication by viral reduction plaque assay; format: functional, organism-based; details: Human alphaherpesvirus 3, Ellen
[3] = Antiviral coefficient, ratio of CC50 for human MRC5 cells to IC50 for Varicella zoster virus Ellen infected in human MRC5 cells; format: functional
[4] = Antiviral coefficient, ratio of CC90 for human MRC5 cells to IC90 for Varicella zoster virus Ellen infected in human MRC5 cells; format: functional
MRC5 [5] = experiment: Effect on CDC27 gene expression in human MRC5 cells infected with Varicella zoster virus Ellen at 100 uM after 24 hrs by DNA microarray analysis; format: functional
MRC5 [6] = experiment: Effect on CACNB4 gene expression in human MRC5 cells infected with Varicella zoster virus Ellen at 100 uM after 24 hrs by DNA microarray analysis; format: functional
MRC5 [7] = experiment: Effect on SLC20A2 gene expression in human MRC5 cells infected with Varicella zoster virus Ellen at 100 uM after 24 hrs by DNA microarray analysis; format: functional
MRC5 [8] = experiment: Effect on KCNS3 gene expression in human MRC5 cells infected with Varicella zoster virus Ellen at 100 uM after 24 hrs by DNA microarray analysis; format: functional
MRC5 [9] = experiment: Effect on DDX27 gene expression in human MRC5 cells infected with Varicella zoster virus Ellen at 100 uM after 24 hrs by DNA microarray analysis; format: functional
MRC5 [10] = experiment: Effect on ZMYND15 gene expression in human MRC5 cells infected with Varicella zoster virus Ellen at 100 uM after 24 hrs by DNA microarray analysis; format: functional
MRC5 [11] = experiment: Effect on PSME1 gene expression in human MRC5 cells infected with Varicella zoster virus Ellen at 100 uM after 24 hrs by DNA microarray analysis; format: functional
MRC5 [12] = experiment: Effect on KRT5 gene expression in human MRC5 cells infected with Varicella zoster virus Ellen at 100 uM after 24 hrs by DNA microarray analysis; format: functional
MRC5 [13] = experiment: Effect on ACTA1 gene expression in human MRC5 cells infected with Varicella zoster virus Ellen at 100 uM after 24 hrs by DNA microarray analysis; format: functional
MRC5 [14] = experiment: Effect on CXCL1 gene expression in human MRC5 cells infected with Varicella zoster virus Ellen at 100 uM after 24 hrs by DNA microarray analysis; format: functional
MRC5 [15] = experiment: Effect on EIF2B1 gene expression in human MRC5 cells infected with Varicella zoster virus Ellen at 100 uM after 24 hrs by DNA microarray analysis; format: functional
MRC5 [16] = experiment: Effect on TPM2 gene expression in human MRC5 cells infected with Varicella zoster virus Ellen at 100 uM after 24 hrs by DNA microarray analysis; format: functional
MRC5 [17] = experiment: Effect on ADCY8 gene expression in human MRC5 cells infected with Varicella zoster virus Ellen at 100 uM after 24 hrs by DNA microarray analysis; format: functional
MRC5 [18] = experiment: Effect on RPL37A gene expression in human MRC5 cells infected with Varicella zoster virus Ellen at 100 uM after 24 hrs by DNA microarray analysis; format: functional
MRC5 [19] = experiment: Effect on SNRPB gene expression in human MRC5 cells infected with Varicella zoster virus Ellen at 100 uM after 24 hrs by DNA microarray analysis; format: functional
MRC5 [20] = experiment: Effect on MRPS18B gene expression in human MRC5 cells infected with Varicella zoster virus Ellen at 100 uM after 24 hrs by DNA microarray analysis; format: functional
MRC5 [21] = experiment: Effect on MT1M gene expression in human MRC5 cells infected with Varicella zoster virus Ellen at 100 uM after 24 hrs by DNA microarray analysis; format: functional
MRC5 [22] = experiment: Effect on SAP18 gene expression in human MRC5 cells infected with Varicella zoster virus Ellen at 100 uM after 24 hrs by DNA microarray analysis; format: functional
MRC5 [23] = experiment: Effect on ACVR1 gene expression in human MRC5 cells infected with Varicella zoster virus Ellen at 100 uM after 24 hrs by DNA microarray analysis; format: functional
MRC5 [24] = experiment: Effect on RNF43 gene expression in human MRC5 cells infected with Varicella zoster virus Ellen at 100 uM after 24 hrs by DNA microarray analysis; format: functional

Compound: CC(C)CC(=O)[C@@H](O)Cc1ccccc1
- Activity (MRC5 [1]): Toxic
- CC50 at 24 h [2]: 765 µM
- CC90 at 24 h [2]: 3880 µM
- IC50 (Human alphaherpesvirus 3): 58 µM
- IC90 (Human alphaherpesvirus 3): 109 µM
- Ratio CC50/IC50 [3]: 13.2
- Ratio [4]: 35.6
- fold change (FC) (MRC5 [5]): 0.823
- fold change (FC) (MRC5 [6]): 0.741
- fold change (FC) (MRC5 [7]): 0.675
- fold change (FC) (MRC5 [8]): 0.673
- fold change (FC) (MRC5 [9]): 0.642
- fold change (FC) (MRC5 [10]): 0.577
- fold change (FC) (MRC5 [11]): 0.576
- fold change (FC) (MRC5 [12]): 0.566
- fold change (FC) (MRC5 [13]): 0.545
- fold change (FC) (MRC5 [14]): 0.544
- fold change (FC) (MRC5 [15]): -1.402
- fold change (FC) (MRC5 [16]): -1.336
- fold change (FC) (MRC5 [17]): -1.328
- fold change (FC) (MRC5 [18]): -1.282
- fold change (FC) (MRC5 [19]): -1.193
- fold change (FC) (MRC5 [20]): -1.168
- fold change (FC) (MRC5 [21]): -1.153
- fold change (FC) (MRC5 [22]): -1.128
- fold change (FC) (MRC5 [23]): -1.105
- fold change (FC) (MRC5 [24]): -1.092

Compound: Nc1nc2c(ncn2COCCO)c(=O)[nH]1 [ACYCLOVIR]
- IC50 (Human alphaherpesvirus 3): 13 µM

Compound: Nc1nc(O)c2ncn(CCC(CO)CO)c2n1 [PENCICLOVIR]
- IC50 (Human alphaherpesvirus 3): 16 µM
